Source: US7311901B2, “Amphiphilic block copolymer and polymeric composition comprising the same for drug delivery” (Samyang Corporation, priority 2003, dated 2007)

Tested on: Taxol®-pretreated cancer cells
Assay: IC50 of paclitaxel for Taxol®-pretreated cancer cells
Type: cell-based, human
Settings: Taxol®-pretreated vs native cancer cells; data not shown

CC(=O)O[C@H]1C(=O)[C@@]2(C)[C@H]([C@H](OC(=O)c3ccccc3)[C@]3(O)C[C@H](OC(=O)[C@H](O)[C@@H](NC(=O)c4ccccc4)c4ccccc4)C(C)=C1C3(C)C)[C@]1(OC(C)=O)CO[C@@H]1C[C@@H]2O [paclitaxel]
IC50 of paclitaxel: increased significantly
